Results taken from PMC9038752, “Molecular mechanisms of bifunctional vitamin D receptor agonist-histone deacetylase inhibitor hybrid molecules in triple-negative breast cancer” (Scientific Reports, 2022).

Legend:
Assay type in all cases: cell-based, mouse
[1] = tested on: 4T1 cells; test: RealTime-Glo MT cell viability assay, 4T1; conditions: 24 h
Method: Figure 5 (a) and (b) Analysis of induced Cyp24a1 expression in 4TO7 (a) and 4T1 (b) cells to test for VDR agonism of DK-406 and heterocyclic analogues after 24 h treatment. c-e. Analysis of the cytotoxicity of hybrid compounds after 24 h using the MTGlo assay (see Methods for details) in 4TO7 (c), 4T1 (d) and MDA-MB-231 (e) cells. […] Each condition was compared to control. *: p ≤ 0.05, **: p ≤ 0.01, ***: p ≤ 0.001, ****: p ≤ 0.0001, ns: not significant.
As previously, we were interested in studying the efficacy of hybrids in models of TNBC. We used the 4T1 cell line[20] as well as the related TNBC cell line 4TO7, which was derived from the same mouse tumor as 4T1 cells in Balb/c mice[33]. 4TO7 cells readily form primary tumors. […] These lines also have the advantage that anti-tumor efficacy studies can be performed in Balb/c mice, which have intact immune systems. Compounds were initially tested for VDR agonist activity in 4TO7 cells by screening induction of the VDR target gene Cyp24a1. […]
The assay was performed to assess cell viability in order to determine analogue cytotoxicity. […] Luminescence was measured using a 1420 Luminescence Counter Victor Light (PerkinElmer), normalized to control, and plotted. […]

[2] = tested on: tubulin acetylation (HDAC6); test: Western blotting of tubulin acetylation in 4TO7 cells; conditions: 6 h, western blot
Method: The hybrids were assessed to determine their HDACi and VDR agonist activity as well as their antiproliferative properties relative to DK-406. HDACi activity was assessed in vitro using an acetylated lysine substrate that releases a fluorescent reporter upon HDACi deacetylation and subsequent trypsin digestion. Increasing sidechain length of pyrimidine hybrids enhanced the potency of HDAC6 inhibition, with several compounds inhibiting HDAC6 with a sub-micromolar IC50, similar to that of DK-406 (Fig. 4a). […] Next, we analyzed the effects of compounds on levels of H3K9 and H3K27 acetylation in 4TO7 cells, which are controlled by class I HDACs[29],[30]. […] We also tested the capacity of analogues to induce tubulin acetylation, controlled by class II enzyme HDAC6[32], in 4TO7 cells. […]
Figure 4 (a) Results of in vitro assays for inhibition of purified HDAC2 and HDAC6 by DK-406 and heterocyclic hybrids as measured by inhibition of deacetylation of a fluorometric substrate (see Methods for details). […]
After treatments, 4T07 cells were solubilized in Lysis Buffer (20 mM Tris, pH 8, 150 mM NaCl, 1% Triton X-100, 3,5 mM SDS, 13 mM deoxycholic acid) and proteins extracted were separated on a 4–15% Tris/Glycine/SDS gel (BIO RAD). […] Signal was detected using Clarity ECL chemiluminescent substrates (Bio-Rad) and ChemiDoc Imaging System from the same company was used to quantify the intensity of bands. […]

[3] = tested on: 4TO7 cells; test: RNAseq gene expression profiling in 4TO7 cells; conditions: relative to control
Method: Cells were treated for 6 h to focus more on genes directly regulated by the VDR, or for 24 or 48 h to gain insight into longer-term effects on gene expression.
McGill Genome Centre performed a quality control before sequencing in paired-end at 50 M reads by Illumina NovaSeq 6000 S4 PE100. Sets of genes regulated in the different conditions were sent to us and downstream analysis were performed.
Table S1 and Table S2 : See Excel files with RNAseq results and analysis
48 hours prior to RNA extraction. Samples were prepared in triplicate and run on Illumina NovaSeq 6000 S4
PE100. For assessing differential gene expression for RNAseq data, the LIMMA package inR was used.
RNAseq results and statistical analyses from D, S, S+D, DK-406, and AM-193 conditions measured relative to
AM-193 for 6 or 24 hours prior to RNA extraction . Samples were prepared in triplicate and run on Illumina
NovaSeq 6000 S4 PE100. For assessing differential gene expression for RNAseq data, the LIMMA package in R was […]

[4] = 6 h, RNAseq Supplemental table 2, 1 µM AM-193, 10 µM DK-406, 100 nM 1,25D and SAHA
[5] = RNAseq Supplemental table 2, 1 µM AM-193, 10 µM DK-406, 100 nM 1,25D and SAHA
[6] = 6 h, RNAseq Supplemental table 1
[7] = 48 h, RNAseq Supplemental table 1

SMILES | Aaas 6h Log Fold [3, 4] | Aacs 6h Log Fold [3, 4] | Aagab 6h Log Fold [3, 4] | Aak1 6h Log Fold [3, 4] | Aamdc 6h Log Fold [3, 4] | Aaas 24h Log Fold [3, 5] | Aacs 24h Log Fold [3, 5] | Aagab 24h Log Fold [3, 5] | Aak1 24h Log Fold [3, 5] | Aamdc 24h Log Fold [3, 5] | also measured
CCC(CC)(c1ccc(OCCCCCC(=O)NO)cc1)c1ccc(OCC(O)C(C)(C)C)c(C)n1 (stereo not shown) [AM-193] | -0.023 | 0.016 | 0.124 | 0.035 | -0.120 | -0.051 | 0.142 | 0.131 | 0.036 | -0.210 | cytotoxicity (MT-Glo viability) [1]: most potent compound tested; potency in MT-Glo assay relative to DK-406 [1]: at least tenfold; tubulin acetylation ([2]; 10^–6 M): consistently induced tubulin acetylation
CCC(CC)(c1ccc(C(=O)NCCCCCC(=O)NO)cc1)c1ccc(OCC(O)C(C)(C)C)c(C)c1 (stereo not shown) [DK-406] | 0.00118 | -0.179 | -0.076 | 0.090 | -0.107 | -0.047 | 0.139 | 0.108 | 0.086 | -0.190 | tubulin acetylation ([2]; 10^–5 M): consistently induced tubulin acetylation; Aaas 6h Log Fold [3, 6]: 1.019; Aacs 6h Log Fold [3, 6]: 1.048; Aaed1 6h Log Fold [3, 6]: -1.030; Aagab 6h Log Fold [3, 6]: -1.033; Aak1 6h Log Fold [3, 6]: 1.122; Aaas 48h Log Fold [3, 7]: -1.331; Aacs 48h Log Fold [3, 7]: 1.275; Aaed1 48h Log Fold [3, 7]: -1.421; Aagab 48h Log Fold [3, 7]: 1.489; Aak1 48h Log Fold [3, 7]: -1.002
